Measurements: EP3283483B1, “CRYSTALLINE ELIGLUSTAT HYDROCHLORIDE” (Sandoz AG, priority 2015, dated 2016)
Counter-ions that a name gives are not always drawn.

Columns and labels:
[1] = Aqueous solubility determined gravimetrically by slurrying in water; format: physicochemical
Description: Aqueous solubility was determined gravimetrically by slurrying Eliglustat hydrochloride from example 1 in water at 22°C. The pH of Eliglustat HCl in water was 7.6. A filtered aliquot was transferred to a pre-weighed vial and the solution evaporated.

[2] = Storage stability of the crystalline form, XRPD analysis after storage; format: physicochemical; settings: stored for one week at 40°C / 75% relative humidity
Description: XRPD analyses were performed on crystalline eliglustat hydrochloride from example 1 using a Panalytical Xpert Pro diffractometer equipped with a Cu X-ray tube and a Pixcel detector system. The isothermal samples were analysed in transmission mode and held between low density polyethylene films. The following XRPD program was used: range 3-40°2θ, step size 0.013°, counting time 99sec, ∼22min run time.
Crystalline eliglustat hydrochloride from example 1 was stored for one week at 40°C / 75% relative humidity.

Q: Which solubility ([1]; pH 7.6, thermodynamic from solid, water, 22°C, gravimetric, pH in water 7.6) does the source give for `CCCCCCCC(=O)N[C@H](CN1CCCC1)[C@H](O)c1ccc2c(c1)OCCO2` [Eliglustat hydrochloride, (1R,2R)-octanoic acid[2-(2',3'-dihydro-benzo[1,4]dioxin-6'-yl)-2-hydroxy-1-pyrrolidin-1-ylmethyl-ethyl]-amide] here?
A: 33 mg/mL

Q: And the “pH of Eliglustat HCl in water” value ([1]; slurry in water at 22°C)?
A: 7.6

Q: What about the “stability of crystalline form after storage (XRPD)” value [2] of the same compound?
A: remained stable with regard to its crystalline form
